Experimental data taken from patent US4145554A, “3-Nitropyrazole derivatives” (Eli Lilly and Company, priority 1977, dated 1979).
Values after ≈ are worked out from the molar mass of the structure shown.

What was measured:
[1] = test system: Pasteurella hemolytica; assay: in vitro tube dilution test (MIC); type: cell-based
[2] = test system: Mycoplasma hyopneumoniae; assay: in vitro tube dilution test (MIC); type: cell-based; details: Mesomycoplasma hyopneumoniae
[3] = test system: Streptococcus sp. (group E); assay: in vitro tube dilution test (MIC); type: cell-based
[4] = test system: Leptospira (5 serotypes); assay: in vitro tube dilution test (MIC); type: cell-based
[5] = test system: Salmonella pullorum 9-27; assay: in vitro tube dilution test (MIC); type: cell-based; details: Salmonella enterica; Salmonella pullorum 9-27, tube dilution
[6] = test system: Hemophilus influenzae; assay: agar dilution technique (MIC); type: cell-based; details: Haemophilus influenzae
[7] = test system: Proteus sp.; assay: agar dilution technique (MIC); type: cell-based
[8] = test system: Serratia sp.; assay: agar dilution technique (MIC); type: cell-based
[9] = test system: Alkaligenes fecalis; assay: agar dilution technique (MIC); type: cell-based
[10] = test system: Erwinia amylovora; assay: Fire blight of pear, in vivo greenhouse test
Protocol: An in vivo test was conducted against the fire blight organism, Erwinia amylovora. Plants infected with E. amylovora were sprayed with aqueous dispersions containing 100 ppm. and 500 ppm. of the test compounds. […] The compounds are identified below by their compound numbers in the above listing.

[11] = test system: Streptococcus pyogenes; assay: Tests in mice, Streptococcus pyogenes infection; type: in vivo; details: S. pyogenes
Protocol: Groups of laboratory mice were inoculatd with E. coli or with Streptococcus pyogenes. The 3-nitropyrazoles were administered in two different modes to the infected mice. In one group of tests, the compound was administered in two subcutaneous doses of 83 mg./kg. each, given 1 and 5 hours after the mice were inoculated with the organism. The mice were observed, and the results reported below as the number of days the treated mice survived the challenge.
In the other group of tests, the dose of each compound which allowed 50 percent of the treated mice to survive the challenge was determined. Again, the compound was administered in subcutane divided doses, 1 and 5 hours post-inoculation.

[12] = test system: Pasteurella multocida and P. hemolytica; assay: Pasteurella pneumonia in calves; type: in vivo
[13] = test system: Salmonella typhimurium; assay: Salmonellosis in chickens, single injection to day-old chicks; type: in vivo; details: Salmonella enterica, TYPHIMURIUM, 168 h; single injection of 60 mg./kg.; seven days; read-out: Survival (converted)
Method in brief: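 Five day-old chicks per group received one injection of compound at 60 mg./kg., then were challenged next day by subcutaneous S. typhimurium at a dose lethal to most or all untreated controls. Read-out is survivor count, pooled over repeat groups, with untreated challenged controls run in each batch.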

[14] = test system: S. typhimurium; assay: Salmonella typhimurium in chickens, medicated feed; type: in vivo, chicks; details: for Avg. Wt.: surviving chicks
[15] = test system: M. gallisepticum; assay: Mycoplasma gallisepticum in chickens; type: in vivo
Protocol: A group of broiler type chickens, weighing about 1265 gm., were obtained from a homogeneous source flock. The birds were allocated into 12-bird treatment groups of equal weight. Four treatment groups were used in each of the treatments, including the untreated infected controls; two groups were held as normal controls.
The birds, other than the normal controls, were challenged by administering two 0.2 ml. injections of a freshly thawed M. gallisepticum culture to each bird, one injection in the wing vein and one in the air sac. Immediately after the challenge, four of the treatment groups were treated by injecting 25 mg./kg., intramuscularly, of 1-(2-hydroxyethyl)-3-nitro-4-pyrazolecarboxamide to each chicken. The other four treated groups received the same compound at 2 gm./gal. (about 50 mg./kg./day) in their drinking water for a period of 41/2 days after the challenge was administered.
The birds were held and observed for about 3 weeks. Mortality in the experiment was negligible. At the end of the observation period, the birds were sacrificed and examined for M. gallisepticum lesions of the air sac. A sample of blood from each bird was tested to determine the presence of M. gallisepticum antibodies. […] The final average weights and the air sac lesion counts are shown below.

[16] = test system: avian E. coli; assay: Colibacillosis in chickens, medicated feed; type: in vivo
[17] = Growth promotion in swine; type: in vivo; details: 300 gm./ton; 28 days
Source text: The same 3-nitropyrazole tested above was used in a growth promotion test in swine. The pigs weighed 25-30 lbs. when the test began, and were housed and fed according to good commercial practice for 28 days. The pigs in the treated group received feed containing 300 gm. per ton of the 3-nitropyrazole compound.

[18] = secretion in sow's milk; set-up: species or system swine; details: in vivo
[19] = test system: Salmonella typhosa; assay: agar dilution technique (MIC); details: Salmonella enterica
[20] = 8 days after challenge, 25 mg. per kg. intramuscular
[21] = 100 gm./ton, 10^-1 dilution challenge, initial weight 940 gm.
[22] = 100 gm./ton, further test, about 5 weeks of age
[23] = 200 gm./ton, 10^-1 dilution challenge, initial weight 940 gm.
[24] = 200 gm./ton, further test, about 5 weeks of age
[25] = 300 gm./ton feed, about 5 weeks old, 10^-2 dilution challenge, first test
[26] = 300 gm./ton, 10^-1 dilution challenge, initial weight 940 gm.

NC(=O)c1cn(CCO)nc1[N+](=O)[O-] [Compound 32, 1-(2-hydroxyethyl)-3-nitro-4-pyrazolecarboxamide]
MIC [1]: < 1.56 µg/mL | MIC [2]: 50 µg/mL (≈ 250 µM) | MIC [3]: 1.56 µg/mL (≈ 7.79 µM) | MIC [4]: > 100 µg/mL | MIC [5]: < 1.56 µg/mL | MIC [6]: 4 µg/mL (≈ 20 µM) | MIC [7]: > 128 µg/mL | MIC [8]: 32 µg/mL (≈ 160 µM) | MIC [9]: 128 µg/mL (≈ 640 µM) | Percent Control of fire blight ([10]; 100 ppm.): 50% | Percent Control of fire blight ([10]; 500 ppm.): 92% | Days Survived ([11]; two subcutaneous doses of 83 mg./kg., 1 and 5 hours): 5.0 days | ED50 ([11]; Streptococcus pyogenes, sc, subcutaneous, 1 and 5 hours post-inoculation): 53.7 mg/kg | pasteurellae identified in lungs [12, 20]: No pasteurellae were identified in the lungs of any of the three animals | physical examination of lungs [12, 20]: minor consolidation or emphysema in areas of the lungs | extent of pasteurella infection ([12]; indicated by temperatures, 25 mg. per kg. intramuscular): only a very mild pasteurella infection | Average Temperature ([12]; post-challenge, 25 mg. per kg. intramuscular daily for five days): 102.7 ° F. | responders at 60 mg/kg [13]: 93.3% | Survival ([14]; Test A, 100 gm./ton feed): 20/36 | Avg. Wt. ([14]; Test A, 100 gm./ton feed): 94 gm. | Survival ([14]; Test B, 200 gm./ton feed): 35/36 | Avg. Wt. ([14]; Test B, 200 gm./ton feed): 107 gm. | Survival ([14]; Test C, 200 gm./ton feed): 34/48 | Avg. Wt. ([14]; Test C, 200 gm./ton feed): 71 gm. | Air Sac Lesions ([15]; 25 mg./kg. (injected)): 41/48 | Avg. Wt. ([15]; 25 mg./kg. (injected)): 2093 gm. | Air Sac Lesions ([15]; 2.0 gm./gal. drinking water): 24/47 | Avg. Wt. ([15]; 2.0 gm./gal. drinking water): 2188 gm. | increase of birds' weight ([15]; in one case (average, each)): more than 160 gm. | increase of birds' weight ([15]; in the other treatment (average, each)): ~260 gm. | Avg. Wt. [16, 21]: 1239 gm. | E. coli Lesions [16, 21]: 17/18 | Mortality [16, 21]: 0/18 | Mortality ([16]; 100 gm./ton, approximately 7-week-old chickens): 3/12 | E. coli Lesions ([16]; 100 gm./ton, approximately 7-week-old chickens, birds which died not examined): 5/9 | Avg. Wt. [16, 22]: 1209 gm. | E. coli Lesions [16, 22]: 37/40 | Mortality [16, 22]: 6/40 | Avg. Wt. [16, 23]: 1250 gm. | E. coli Lesions [16, 23]: 16/18 | Mortality [16, 23]: 0/18 | Avg. Wt. [16, 24]: 1353 gm. | E. coli Lesions [16, 24]: 31/40 | Mortality [16, 24]: 2/40 | E. coli Lesions [16, 25]: 11/30 | Mortality [16, 25]: 0/30 | Wt. [16, 25]: 1103 gm. | Avg. Wt. [16, 26]: 1302 gm. | E. coli Lesions [16, 26]: 5/18 | Mortality [16, 26]: 0/18 | Mortality ([16]; 300 gm./ton, approximately 7-week-old chickens): 0/12 | E. coli Lesions ([16]; 300 gm./ton, approximately 7-week-old chickens, birds which died not examined): 4/12 | Mortality ([16]; 600 gm./ton, approximately 7-week-old chickens): 0/12 | E. coli Lesions ([16]; 600 gm./ton, approximately 7-week-old chickens, birds which died not examined): 2/12 | Mortality ([16]; 1000 gm./ton, approximately 7-week-old chickens): 0/12 | E. coli Lesions ([16]; 1000 gm./ton, approximately 7-week-old chickens, birds which died not examined): 0/12 | Average Daily Feed Consumption [17]: 2.00 lbs. | Average Daily Gain [17]: 1.01 lbs. | Feed/Gain [17]: 1.96 | secretion in sow's milk [18]: secreted in sow's milk | MIC [19]: 2 µg/mL (≈ 9.99 µM)
